# Source: patent US7517996B2, “Azole compound” (Ajinomoto Co., Inc., priority 2003, dated 2009)
# Test: Inhibition of LPA-induced intracellular Ca2+ concentration increase (FLIPR)
# Assay type: cell-based
# Details: LPA final concentration 5 μM; rat hepatic stellate cell derived myofibroblast like clone; Fluo-3, FLIPR
# From the text: (1) Establishment of Myofibroblast Like Cell Strain Derived from Rat Hepatic Stellate Cell Fraction A stellate cell fraction was obtained from the liver of male Wistar rat according to a conventional method (European J. Biochem., 1993, vol. 213, p. 815). After subculture for several generations, the cell was cloned by limiting dilution. Well grown 24 clones that formed colonies were isolated. These clones were stained with αSMA antibody and confirmed to be all positive and to have Myofibroblast like properties. […] (2) Measurement of Cell Activation (Intracellular Ca^2+ Concentration Increasing Action)-Inhibitory Activity The above-mentioned cells were cultured overnight in a 384 well plate at 24,000 cells/well and the medium was removed. An assay buffer (0.1% BSA, 20 mM HEPES, 1×HBSS, 2.5 mM Probenecid) containing 4 μM of Fluo-3, AM (Biotium) was added, and the cells were stained at 37° C. for 1 hour. Following the buffer containing the dye reagent was removed, and an assay buffer was added, intracellular Ca^2+ concentration was measured with FLIPR (Molecular Devices). Adding a test substance and LPA at the final concentration of 5 μM, the inhibitory action of the test substance on the increase in the intracellular Ca^2+ concentration by LPA was examined. The increase in the intracellular Ca^2+ concentration by LPA addition without test substance was taken as 100%, that without the addition of LPA was taken as 0%, and the substrate's concentration (IC50) at inhibiting increase in the intracellular Ca^2+ concentration by 50% was determined.
row,Structure (SMILES),IC50
1,"CC(OC(=O)Nc1conc1-c1ccc(CCSCC(=O)O)cc1)c1ccccc1Cl (stereo not drawn) [Compound 14, {[2-(4-{4-[1-(2-chlorophenyl)ethoxycarbonylamino]-3-isoxazolyl}phenyl)ethyl]thio}acetic acid]",146 nM
2,"C[C@@H](OC(=O)Nc1conc1-c1ccc(CCCCC(=O)O)cc1)c1ccccc1Cl [Compound 31, 5-(4-{4-[(1R)-1-(2-chlorophenyl)ethoxycarbonylamino]-3-isoxazolyl}phenyl)-4-pentanoic acid]",76 nM
3,"C[C@@H](OC(=O)Nc1conc1-c1ccc(CS(=O)(=O)CCC(=O)O)cc1)c1ccccc1Cl [Compound 28, 3-(4-{4-[(1R)-1-(2-chlorophenyl)ethoxycarbonylamino]-3-isoxazolyl}benzylsulfonyl)propionic acid]",36 nM
4,"CC(OC(=O)Nc1conc1-c1ccc(O)cc1)c1ccccc1Cl (stereo not drawn) [Compound 23, 1-(2-chlorophenyl)ethyl 3-(4-hydroxyphenyl)-4-isoxazolylcarbamate]",116 nM
5,"CC(OC(=O)Nc1cnoc1-c1ccc(CSCCC(=O)O)cc1)c1ccccc1Cl (stereo not drawn) [Compound 18, 3-(4-{4-[1-(2-chlorophenyl)ethoxycarbonylamino]-5-isoxazolyl}benzylsulfanyl)propionic acid]",81 nM
6,"CC(OC(=O)Nc1conc1-c1ccc(CSCCS(=O)(=O)O)cc1)c1ccccc1Cl (stereo not drawn) [Compound 5, 2-(4-{4-[1-(2-chlorophenyl)ethoxycarbonylamino]-3-isoxazolyl}benzylsulfanyl)ethanesulfonic acid]",74 nM
7,"CC(OC(=O)Nc1conc1-c1ccc(COC(=O)NCCC(=O)O)cc1)c1ccccc1Cl (stereo not drawn) [Compound 20, 3-(4-{4-[1-(2-chlorophenyl)ethoxycarbonylamino]-3-isoxazolyl}benzyloxycarbonylamino)propionic acid]",83 nM
8,"CC(=O)O[C@H](CC(=O)Nc1ccc(-c2nocc2NC(=O)OC(C)c2ccccc2Cl)cc1)C(=O)O (stereo partly drawn) [Compound 26, (2R)-2-acetoxy-4-[(4-{4-[1-(2-chlorophenyl)ethoxy-carbonylamino]-3-isoxazolyl}phenyl)amino]-4-oxobutanoic acid]",141 nM
9,"C[C@@H](OC(=O)Nc1conc1-c1ccc(CSCCC(=O)O)cc1)C1=C(Cl)CCC1 [Compound 9, 3-(4-{4-[(1R)-1-(2-chloro-1-cyclopentenyl)ethoxycarbonyl-amino]-3-isoxazolyl}benzylsulfanyl)propionic acid]",26 nM
10,"CC(OC(=O)Nc1conc1-c1ccc(CSCCC(=O)O)cc1)C1=C(Cl)CCC1 (stereo not drawn) [Compound 8, 3-(4-{4-[1-(2-chloro-1-cyclopentenyl)ethoxycarbonylamino]-3-isoxazolyl}benzylsulfanyl)propionic acid]",29 nM
11,"CC(OC(=O)Nc1conc1-c1ccc(CCSCC(=O)O)cc1)C1=C(Cl)CCCC1 (stereo not drawn) [Compound 17, {[2-(4-{4-[1-(2-chlorocyclohexenyl)ethoxycarbonylamino]-3-isoxazolyl}phenyl)ethyl]thio}acetic acid]",62 nM
12,"CC(OC(=O)Nc1conc1-c1ccc(CCC(C)(C)CC(=O)O)cc1)c1ccccc1Cl (stereo not drawn) [Compound 33, 5-(4-{4-[1-(2-chlorophenyl)ethoxycarbonylamino]-3-isoxazolyl}phenyl)-3,3-dimethylpentanoic acid]",119 nM
13,"C[C@@H](OC(=O)Nc1conc1-c1ccc(/C=C/CCC(=O)O)cc1)c1ccccc1Cl [Compound 30, 5-(4-{4-[(1R)-1-(2-chlorophenyl)ethoxycarbonylamino]-3-isoxazolyl}phenyl)-4-pentenoic acid]",107 nM
14,"CC(OC(=O)Nc1conc1-c1ccc(OCCCCC(=O)O)cc1)c1ccccc1Cl (stereo not drawn) [Compound 24, 5-(4-{4-[1-(2-chlorophenyl)ethoxycarbonylamino]-3-isoxazolyl}phenoxy)pentanoic acid]",131 nM
15,"CC(OC(=O)Nc1conc1-c1ccc(CCSCC(=O)O)cc1)C1=C(Cl)CCC1 (stereo not drawn) [Compound 16, {[2-(4-{4-[1-(2-chlorocyclopentenyl)ethoxycarbonylamino]-3-isoxazolyl}phenyl)ethyl]thio}acetic acid]",32 nM
